Converted amounts (≈) assume the structure as drawn.
Key:
[1] = system: Pseudomonas aeruginosa; assay: Antibacterial activity against Pseudomonas aeruginosa PAO1 after 18 hrs by CLSI broth microdilution method; assay type: functional; details: PAO1, 18 h
[2] = Cytotoxicity against HEK293T cells assessed as reduction in cell viability after 48 hrs by MTS assay; assay type: cell-based, HEK-293T; details: human
[3] = system: Enterococcus faecium; assay: Antibacterial activity against vancomycin-resistant Enterococcus faecium ATCC 700221 after 18 hrs by CLSI broth microdilution method; assay type: functional; details: ATCC 700221, 18 h
[4] = system: Proteus mirabilis; assay: Antibacterial activity against Proteus mirabilis 12-6 after 18 hrs by CLSI broth microdilution method; assay type: functional; details: 12-6, 18 h
[5] = system: Enterococcus faecalis; assay: Antibacterial activity against vancomycin-sensitive Enterococcus faecalis 12-5 after 18 hrs by CLSI broth microdilution method; assay type: functional; details: 12-5, 18 h
[6] = system: Stenotrophomonas maltophilia; assay: Antibacterial activity against Stenotrophomonas maltophilia ATCC 13636 after 18 hrs by CLSI broth microdilution method; assay type: functional; details: ATCC 13636, 18 h
[7] = system: Staphylococcus aureus; assay: Antibacterial activity against methicillin-resistant Staphylococcus aureus 12-33 after 18 hrs by CLSI broth microdilution method; assay type: functional; details: 12-33, 18 h
[8] = system: Staphylococcus aureus; assay: Antibacterial activity against methicillin-sensitive Staphylococcus aureus 12-28 after 18 hrs by CLSI broth microdilution method; assay type: functional; details: 12-28, 18 h
[9] = system: Klebsiella pneumoniae; assay: Antibacterial activity against extended-spectrum beta-lactamase harboring Klebsiella pneumoniae ATCC 700603 after 18 hrs by CLSI broth microdilution method; assay type: functional; details: Klebsiella pneumoniae, 700603, 18 h
[10] = system: Enterococcus faecalis; assay: Antibacterial activity against vancomycin-resistant Enterococcus faecalis ATCC 51299 after 18 hrs by CLSI broth microdilution method; assay type: functional; details: ATCC 51299, 18 h
[11] = system: Staphylococcus epidermidis; assay: Antibacterial activity against methicillin-sensitive Staphylococcus epidermidis ATCC 12228 after 18 hrs by CLSI broth microdilution method; assay type: functional; details: ATCC 12228, 18 h
[12] = system: Pseudomonas aeruginosa; assay: Antibacterial activity against Pseudomonas aeruginosa ATCC 27853 after 18 hrs by CLSI broth microdilution method; assay type: functional; details: ATCC 27853, 18 h
[13] = system: Acinetobacter calcoaceticus; assay: Antibacterial activity against Acinetobacter calcoaceticus ATCC 19606 after 18 hrs by CLSI broth microdilution method; assay type: functional; details: ATCC 19606, 18 h
[14] = system: Klebsiella aerogenes; assay: Antibacterial activity against Enterobacter aerogenes ATCC 13048 after 18 hrs by CLSI broth microdilution method; assay type: functional; details: ATCC 13048, 18 h
[15] = system: Klebsiella pneumoniae; assay: Antibacterial activity against extended-spectrum beta-lactamase deficient Klebsiella pneumoniae 7 after 18 hrs by CLSI broth microdilution method; assay type: functional; details: Klebsiella pneumoniae, 7, 18 h
[16] = system: Klebsiella pneumoniae; assay: Antibacterial activity against new delhi metallo-beta-lactamase-1 harboring Klebsiella pneumoniae ATCC BAA-2146 after 18 hrs by CLSI broth microdilution method; assay type: functional; details: ATCC BAA-2146, 18 h
[17] = system: Staphylococcus epidermidis; assay: Antibacterial activity against methicillin-resistant Staphylococcus epidermidis 12-8 after 18 hrs by CLSI broth microdilution method; assay type: functional; details: 12-8, 18 h
[18] = system: Escherichia coli; assay: Antibacterial activity against extended-spectrum beta-lactamase deficient Escherichia coli 1515 after 18 hrs by CLSI broth microdilution method; assay type: functional; details: Escherichia coli, 1515, 18 h
[19] = system: Serratia marcescens; assay: Antibacterial activity against Serratia marcescens ATCC 21074 after 18 hrs by CLSI broth microdilution method; assay type: functional; details: ATCC 21074, 18 h
[20] = system: Enterococcus faecium; assay: Antibacterial activity against vancomycin-resistant Enterococcus faecium 12-1 after 18 hrs by CLSI broth microdilution method; assay type: functional; details: 12-1, 18 h
[21] = system: Citrobacter freundii; assay: Antibacterial activity against Citrobacter freundii ATCC 43864 after 18 hrs by CLSI broth microdilution method; assay type: functional; details: ATCC 43864, 18 h
[22] = system: Proteus vulgaris; assay: Antibacterial activity against Proteus vulgaris ATCC 29905 after 18 hrs by CLSI broth microdilution method; assay type: functional; details: ATCC 29905, 18 h
[23] = system: Escherichia coli; assay: Antibacterial activity against extended-spectrum beta-lactamase harboring Escherichia coli 12-15 after 18 hrs by CLSI broth microdilution method; assay type: functional; details: 12-15, 18 h
[24] = system: Providencia rettgeri; assay: Antibacterial activity against Providencia rettgeri ATCC 31052 after 18 hrs by CLSI broth microdilution method; assay type: functional; details: ATCC 31052, 18 h
[25] = system: Staphylococcus aureus; assay: Antibacterial activity against methicillin-sensitive Staphylococcus aureus ATCC 29213 after 18 hrs by CLSI broth microdilution method; assay type: functional; details: ATCC 29213, 18 h
[26] = system: Escherichia coli; assay: Antibacterial activity against extended-spectrum beta-lactamase deficient Escherichia coli ATCC 25922 after 18 hrs by CLSI broth microdilution method; assay type: functional; details: ATCC 25922, 18 h
[27] = system: Staphylococcus aureus; assay: Antibacterial activity against methicillin-sensitive Staphylococcus aureus 15 after 18 hrs by CLSI broth microdilution method; assay type: functional; details: Staphylococcus aureus, 15, 18 h
[28] = system: Pseudomonas aeruginosa; assay: Antibacterial activity against Pseudomonas aeruginosa 12-16 after 18 hrs by CLSI broth microdilution method; assay type: functional; details: 12-16, 18 h
[29] = system: Staphylococcus aureus; assay: Antibacterial activity against methicillin-resistant Staphylococcus aureus ATCC 33591 after 18 hrs by CLSI broth microdilution method; assay type: functional; details: ATCC 33591, 18 h
[30] = system: Klebsiella pneumoniae; assay: Antibacterial activity against extended-spectrum beta-lactamase deficient Klebsiella pneumoniae 12-4 after 18 hrs by CLSI broth microdilution method; assay type: functional; details: 12-4, 18 h
[31] = system: Enterococcus faecium; assay: Antibacterial activity against vancomycin-sensitive Enterococcus faecium 12-3 after 18 hrs by CLSI broth microdilution method; assay type: functional; details: 12-3, 18 h
[32] = system: Escherichia coli; assay: Antibacterial activity against extended-spectrum beta-lactamase deficient Escherichia coli 12-14 after 18 hrs by CLSI broth microdilution method; assay type: functional; details: 12-14, 18 h
[33] = system: Enterococcus faecalis; assay: Antibacterial activity against vancomycin-sensitive Enterococcus faecalis ATCC 29212 after 18 hrs by CLSI broth microdilution method; assay type: functional; details: ATCC 29212, 18 h
[34] = system: Klebsiella pneumoniae; assay: Antibacterial activity against extended-spectrum beta-lactamase harboring Klebsiella pneumoniae 12-8 after 18 hrs by CLSI broth microdilution method; assay type: functional; details: 12-8, 18 h
[35] = system: Staphylococcus epidermidis; assay: Antibacterial activity against methicillin-sensitive Staphylococcus epidermidis 12-6 after 18 hrs by CLSI broth microdilution method; assay type: functional; details: 12-6, 18 h
[36] = system: Enterococcus faecalis; assay: Antibacterial activity against vancomycin-resistant Enterococcus faecalis 09-9 after 18 hrs by CLSI broth microdilution method; assay type: functional; details: 09-9, 18 h
[37] = system: Enterobacter cloacae; assay: Antibacterial activity against Enterobacter cloacae ATCC 43560 after 18 hrs by CLSI broth microdilution method; assay type: functional; details: ATCC 43560, 18 h

| SMILES | MIC [1] | CC50 at 48 h [2] | MIC [3] | MIC [4] | MIC [5] | MIC [6] | MIC [7] | MIC [8] | MIC [9] | MIC [10] | MIC [11] | MIC [12] | MIC [13] | MIC [14] | MIC [15] | MIC [16] | MIC [17] | MIC [18] | MIC [19] | MIC [20] | also measured |
| --- | --- | --- | --- | --- | --- | --- | --- | --- | --- | --- | --- | --- | --- | --- | --- | --- | --- | --- | --- | --- | --- |
| CC(C)NC(=N)c1ccc2cc(-c3cncc(-c4cc5ccc(C(=N)NC(C)C)cc5[nH]4)c3)[nH]c2c1 | > 64 µg/mL | 26.5 µg/mL (≈ 55.4 µM) | > 64 µg/mL | > 64 µg/mL | > 64 µg/mL | > 64 µg/mL | 32 µg/mL (≈ 67 µM) | 16 µg/mL (≈ 33.5 µM) | > 64 µg/mL | > 64 µg/mL | 8 µg/mL (≈ 16.7 µM) | > 64 µg/mL | > 64 µg/mL | > 64 µg/mL | > 64 µg/mL | > 64 µg/mL | 8 µg/mL (≈ 16.7 µM) | > 64 µg/mL | > 64 µg/mL | > 64 µg/mL | MIC [21]: > 64 µg/mL; MIC [22]: > 64 µg/mL; MIC [23]: > 64 µg/mL; MIC [24]: > 64 µg/mL; MIC [25]: 8 µg/mL (≈ 16.7 µM); MIC [26]: > 64 µg/mL; MIC [27]: 16 µg/mL (≈ 33.5 µM); MIC [28]: > 64 µg/mL; MIC [29]: 16 µg/mL (≈ 33.5 µM); MIC [30]: > 64 µg/mL; MIC [31]: > 64 µg/mL; MIC [32]: > 64 µg/mL; MIC [33]: > 64 µg/mL; MIC [34]: > 64 µg/mL; MIC [35]: 2 µg/mL (≈ 4.19 µM); MIC [36]: > 64 µg/mL; MIC [37]: > 64 µg/mL |
| CCC(CC)NC(=N)c1ccc2cc(-c3ccc(-c4cc5ccc(C(=N)NC(CC)CC)cc5[nH]4)cc3)[nH]c2c1 | 64 µg/mL (≈ 120 µM) | 3.42 µg/mL (≈ 6.41 µM) | 2 µg/mL (≈ 3.75 µM) | 16 µg/mL (≈ 30 µM) | 4 µg/mL (≈ 7.51 µM) | 16 µg/mL (≈ 30 µM) | 1 µg/mL (≈ 1.88 µM) | 2 µg/mL (≈ 3.75 µM) | 16 µg/mL (≈ 30 µM) | 4 µg/mL (≈ 7.51 µM) | 0.5 µg/mL (≈ 0.939 µM) | 16 µg/mL (≈ 30 µM) | 16 µg/mL (≈ 30 µM) | 8 µg/mL (≈ 15 µM) | 8 µg/mL (≈ 15 µM) | 8 µg/mL (≈ 15 µM) | 0.5 µg/mL (≈ 0.939 µM) | 8 µg/mL (≈ 15 µM) | 32 µg/mL (≈ 60.1 µM) | 2 µg/mL (≈ 3.75 µM) | MIC [21]: 8 µg/mL (≈ 15 µM); MIC [22]: 8 µg/mL (≈ 15 µM); MIC [23]: 8 µg/mL (≈ 15 µM); MIC [24]: 8 µg/mL (≈ 15 µM); MIC [25]: 1 µg/mL (≈ 1.88 µM); MIC [26]: 8 µg/mL (≈ 15 µM); MIC [27]: 2 µg/mL (≈ 3.75 µM); MIC [28]: 32 µg/mL (≈ 60.1 µM); MIC [29]: 1 µg/mL (≈ 1.88 µM); MIC [30]: 8 µg/mL (≈ 15 µM); MIC [31]: 2 µg/mL (≈ 3.75 µM); MIC [32]: 8 µg/mL (≈ 15 µM); MIC [33]: 2 µg/mL (≈ 3.75 µM); MIC [34]: 8 µg/mL (≈ 15 µM); MIC [35]: 0.5 µg/mL (≈ 0.939 µM); MIC [36]: 4 µg/mL (≈ 7.51 µM); MIC [37]: 8 µg/mL (≈ 15 µM) |
| CN(C)C(=N)c1ccc2cc(-c3cnc(-c4cc5ccc(C(=N)N(C)C)cc5[nH]4)s3)[nH]c2c1 | > 64 µg/mL | 2.01 µg/mL (≈ 4.41 µM) | 1 µg/mL (≈ 2.19 µM) | 8 µg/mL (≈ 17.6 µM) | 2 µg/mL (≈ 4.39 µM) | 16 µg/mL (≈ 35.1 µM) | 1 µg/mL (≈ 2.19 µM) | 0.5 µg/mL (≈ 1.1 µM) | 8 µg/mL (≈ 17.6 µM) | 1 µg/mL (≈ 2.19 µM) | 0.12 µg/mL (≈ 0.263 µM) | 16 µg/mL (≈ 35.1 µM) | 16 µg/mL (≈ 35.1 µM) | 4 µg/mL (≈ 8.78 µM) | 4 µg/mL (≈ 8.78 µM) | 4 µg/mL (≈ 8.78 µM) | 0.25 µg/mL (≈ 0.549 µM) | 2 µg/mL (≈ 4.39 µM) | 8 µg/mL (≈ 17.6 µM) | 1 µg/mL (≈ 2.19 µM) | MIC [21]: 4 µg/mL (≈ 8.78 µM); MIC [22]: 4 µg/mL (≈ 8.78 µM); MIC [23]: 2 µg/mL (≈ 4.39 µM); MIC [24]: 2 µg/mL (≈ 4.39 µM); MIC [25]: 0.25 µg/mL (≈ 0.549 µM); MIC [26]: 2 µg/mL (≈ 4.39 µM); MIC [27]: 0.25 µg/mL (≈ 0.549 µM); MIC [28]: > 64 µg/mL; MIC [29]: 0.25 µg/mL (≈ 0.549 µM); MIC [30]: 4 µg/mL (≈ 8.78 µM); MIC [31]: 2 µg/mL (≈ 4.39 µM); MIC [32]: 2 µg/mL (≈ 4.39 µM); MIC [33]: 1 µg/mL (≈ 2.19 µM); MIC [34]: 4 µg/mL (≈ 8.78 µM); MIC [35]: 0.125 µg/mL (≈ 0.274 µM); MIC [36]: 0.5 µg/mL (≈ 1.1 µM); MIC [37]: 2 µg/mL (≈ 4.39 µM) |

From ChEMBL document CHEMBL4229379, “Synthesis and structure-activity relationship of novel bisindole amidines active against MDR Gram-positive and Gram-negative bacteria” (Eur J Med Chem, 2018)
